In US20120301478A1, “Pharmaceutical for Preventing or Treating Disorders Accompanied by Ocular Angiogenesis and/or Elevated Ocular Vascular Permeability” (priority 2010, published 2012):

How the values were obtained:
[1] = system: choroidal neovascularization (CNV) model; test: Laser-induced choroidal neovascularization (CNV) mouse model, CNV volume (Experiment 1); assay type: in vivo, mouse (male C57BL/6J)
From the text: In the CNV model, macrophages migrate by the initiation of an inflammation by laser irradiation. Since VEGF are produced, neovascular vessels are generated, and increased vascular permeability is observed as the result thereof, the CNV model is one of models that produce VEGF. […] The both eyes of a male C57BL/6J mice having a body weight of about 20 g (6-week old) were irradiated with laser (irradiated by 4 to 6 spots per one eye) to induce CNV experimentally. As mentioned below, an anti-VEGF antibody and/or fidarestat were administered as a drug. […] As the anti-VEGF antibody, an anti-mouse VEGF antibody purchased from R&D Systems was used. The number of examples was three or four per a group, and the following four groups were set. […] After completion of the laser irradiation, the mice were bred by general breeding for 7 days, and thereafter the eye balls were excised and the volume of CNV appeared in the choroid was measured. […] The volume of CNV was measured by importing an image in the vicinity of CNV by a confocal laser microscope (Zeiss LSM5 Pascal) and using image analysis software (NIH Image J). […]

[2] = system: choroidal neovascularization (CNV) model, increased vascular permeability; test: Laser-induced CNV mouse model, fluorescein-fluorescent fundus angiography, vascular permeability (Experiment 2); assay type: in vivo; settings: fidarestat forced oral 16 mg/kg twice a day (32 mg/kg/day); 7 days after laser irradiation
Procedure: An anti-VEGF antibody and/or fidarestat were administered to a mouse that had been treated to induce CNV in a similar manner to that in Experiment 1. […] The number of examples was three or four per a group, and the following five groups were set. […] The both eyes were photographed by an eye-fundus camera, and the obtained eye-ground picture was evaluated in a blinded manner according to the following criteria. • grade 0: nonleaky, no leakage from blood-vessel • grade 1: questionable leakage, weak leakage was observed • grade 2: leaky, leakage was observed • grade 3: pathologically significant leakage, clear leakage was observed on wide area The ratio of the number of the FA grade 3 lesions (%) in each eye was calculated, and the average value of the calculated rates in each group was obtained. […]

STZ-diabetic rat retina = settings: streptozotocin (STZ)-diabetic rat, cited from earlier work
[3] = injected in the vitreous body of a human; cited from earlier work

Compound | dose at which the maximum medicinal effect is shown ([1]; CNV mouse model, fidarestat) [mg/kg/day] | effect of suppressing CNV (CNV volume) compared to the untreated group ([1]; fidarestat 32 mg/kg/day in powder feedstuff, from 2 days before to 7 days after laser irradiation) | ratio of the number of the FA grade 3 lesions [2] | overexpression of VEGF (STZ-diabetic rat retina; retina) | retinal oxidative stress (STZ-diabetic rat retina) | disappearing half-life [3] [h]
NC(=O)[C@@H]1C[C@]2(NC(=O)NC2=O)c2cc(F)ccc2O1 [fidarestat, (2S,4S)-6-fluoro-2′,5′-dioxospiro[chroman-4,4′-imidazolidine]-2-carboxamide] | 32 | significant effect of suppressing CNV was observed (p<0.05) | approximately the same rate as that in the 2 ng anti-VEGF antibody-administered group | suppresses | suppresses | –
ranibizumab: typical anti-VEGF agent, anti-VEGF antibody used as intravitreal injection | – | – | – | – | – | 220
